Measured values taken from the supplement of paper PMC6723410.

Tested on: GUMC-403
Assay: viability at highest tested concentration (max response) relative to DMSO (% of DMSO control); higher = less cytotoxic
Conditions: library / dose series: MIPE library, 11-point 1:3 dilution; top concentration 46.1 µM; 48 h
How it was run: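 This value is viability at the highest tested concentration relative to vehicle control. GUMC-403 papilloma cells from a patient, grown by conditional reprogramming, were plated at 700/well in 1536-well plates and given 23 nL of compound by pin tool for 48 h. CellTiter-Glo luminescence on a ViewLux was normalised with vehicle wells at 100% and empty wells at 0%.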

| SMILES | viability |
| --- | --- |
| COc1c(O)cc2c(c1O)[C@@H]1O[C@H](CO)[C@@H](O)[C@H](O)[C@H]1OC2=O | 110 |
| Nc1ncnc2nc(-c3ccc(N4CCOCC4)nc3)cc(-c3cccc(Br)c3)c12 | 110 |
| CC(=O)NCCC(=O)N[C@@H](CCC(N)=O)C(=O)N[C@@H](CO)C(=O)N[C@@H](CCC(N)=O)C(=O)N[C@@H](CCC(N)=O)C(=O)N[C@H](C(=O)N[C@@H](Cc1ccccc1)C(=O)N[C@]1(C)CCCCCC/C=C\CCC[C@@](C)(C(=O)N[C@@H](CCC(N)=O)C(=O)N[C@@H](CC(N)=O)C(N)=O)NC(=O)[C@H](CC(C)C)NC(=O)[C@H](CC(C)C)NC(=O)[C@@H](CCCNC(=N)N)NC(=O)[C@H](Cc2c[nH]c3ccccc23)NC(=O)[C@H](CC(C)C)NC(=O)[C@H](CC(N)=O)NC1=O)[C@H](C)O | 99.6 |
| N[S+]([O-])(=O)C1=C(Cl)C=C2\N=C/N[S+]([O-])(=O)C2=C1 | 127 |
| N[S+](=O)([O-])c1cc2c(cc1Cl)NCN[S+]2(=O)[O-] | 108 |
| NC\1=N\C(=O)N(\C=C1)[C@@H]2O[C@H](CO)[C@@H](O)[C@H]2O | 128 |
| N#Cc1c(C2CCNCC2)cc(-c2c(O)cccc2OCC2CC2)nc1N | 103 |
| NC1=NC(=O)N2CC12 (stereo unspecified) | 138 |
| O=C1NC(=O)/C(=C/c2ccc(-c3ccc(F)cc3O)o2)S1 | 83 |
| O=P(O)(O)C(O)(Cc1cccnc1)P(=O)(O)[O][Na] (stereo unspecified) | 123 |
| CCCC[N+]1(C)[C@@H]2CC(OC(=O)[C@H](CO)c3ccccc3)C[C@H]1[C@@H]1O[C@@H]12 (stereo partly specified) | 114 |
| CN(CCOc1ccc(CC2SC(=O)NC2=O)cc1)c1ccccn1 (stereo unspecified) | 118 |
| CC(C)(C)c1cc(NC(=O)Nc2ccc(-c3cn4c(n3)sc3cc(OCCN5CCOCC5)ccc34)cc2)no1 | 121 |
| Cc1cccc(Nc2ccncc2[S+](=O)([O-])NC(=O)NC(C)C)c1 | 108 |
| CC[C@H](C)[N]1C=C(C)C2=C1C=C(C=C2C(=O)NC\C3=C(C)\C=C(\C)NC3=O)C4=CC=C(N=C4)N5CCNCC5 | 141 |
| CCCCc1ccc2[nH]c(NC(=O)OC)nc2c1 | 112 |
| COc1ccc(C(C)=O)c(O)c1 | 103 |
| COc1cc([C@@H]2c3cc4c(cc3[C@@H](O)C3COC(=O)C32)OCO4)cc(OC)c1O (stereo partly specified) | 117 |
| COc1cccc2c(NCc3ccccc3)nc(-n3c(N)nc4ccccc43)nc12 | 131 |
| O=C(/C=C/c1cccnc1)NCCCCC1CCN(C(=O)c2ccccc2)CC1 | 128 |
| C[C@H]1[C@@H](OC(=O)CCC(=O)O)O[C@@H]2O[C@@]3(C)CC[C@H]4[C@H](C)CC[C@@H]1[C@@]24OO3 | 97.7 |

| SMILES | viability |
| --- | --- |
| Cc1cc(O)c2c(c1)C(=O)c1cccc(O)c1C2=O | 95.5 |
| CCC(=O)N1CCN(CC1)C2=C(C=C(C=C2)N3C(=O)\C=C/C4=C3C5=CC(=CC=C5N=C4)C6=CN=C7C=CC=CC7=C6)C(F)(F)F | 73.8 |
| CC(=O)O/N=C1/C(=C2\C(=O)Nc3cc(Br)ccc32)Nc2ccccc21 | 122 |
| NC(=O)NO | 51.9 |
| NC/1=N/C(=O)N(/C=C1F)[C@H]2CS[C@H](CO)O2 | 115 |
| CC[C@@H](C)[C@H](NC(=O)[C@H](CC1CCCCC1)NC(=O)c1ccno1)C(=O)N1CCC2(CCc3ccccc32)CC1 | 90.5 |
| CN1CCC(=C2c3ccccc3CCc3sccc32)CC1 | 115 |
| CN(C)c1ccc(O)c2c1C[C@H]1C[C@H]3[C@H](N(C)C)C(O)=C(C(N)=O)C(=O)[C@@]3(O)C(O)=C1C2=O | 110 |
| NC(=O)c1ccc(-c2nc(-c3ccc4c(c3)OCCO4)c(-c3ccccn3)[nH]2)cc1 | 131 |
| CN(C)[C@H]\1[C@@H]2[C@@H](O)[C@H]3\C(=C(O)/[C@]2(O)C(=O)\C(=C1O)C(N)=O)C(=O)C4=C(C=CC=C4O)[C@@]3(C)O | 114 |
| O=C(O)C(=O)c1cn(Cc2ccccc2)c2ccc(-c3ccc(OC(F)(F)F)cc3)cc12 | 111 |
| CNC(=O)C1=CC=C(C)C(=C1)N2C(=C/C(=C(/Br)C2=O)OCC3=C(F)C=C(F)C=C3)\C | 109 |
| CN(C)C/C=C/C(=O)Nc1cc2c(Nc3ccc(F)c(Cl)c3)ncnc2cc1O[C@H]1CCOC1 | 41.7 |
| CO[C@@H]1[C@@H](O)[C@H](O)[C@@H](n2c3c(Cl)cccc3c3c4c(c5c6cccc(Cl)c6[nH]c5c32)C(=O)NC4=O)O[C@H]1CO | 112 |
| O=C1\C=C/C[C@@H]2[C@H]3CCCN4CCC[C@@H](CN12)[C@@H]34 | 108 |
| COCCNCCCn1c(C(=O)CF)c(-c2ccc(C)cc2)c2c(N)ncnc21 | 90.7 |
| O=C(CS(=O)Cc1ccco1)NC/C=C\COc1cc(CN2CCCCC2)ccn1 (stereo unspecified) | 128 |
| CC(C)(O)CC(=O)NCCn1ccc2ncnc(Nc3ccc(Oc4cccc(C(F)(F)F)c4)c(Cl)c3)c21 | 71.7 |
| Cc1onc(-c2ccccc2Cl)c1C(=O)N[C@@H]1C(=O)N2[C@@H]1SC(C)(C)[C@@H]2C(=O)[O-] | 111 |
| c1ccc(-c2nn3c(c2-c2ccnc4cc(OCCN5CCOCC5)ccc24)CCC3)nc1 | 148 |
